# Test results reported in patent US20120165304A1, “6,7,8,9-Tetrahydro-5H-1,4,7,10a-tetraaza-cyclohept[f]indene derivatives, pharmaceutical compositions containing these compounds, their use and processes for preparing them” (BOEHRINGER INGELHEIM INTERNATIONAL GMBH, priority 2008, published 2012).
# Molecular target: human 5-HT2C receptor (Homo sapiens, UniProt P28335, I156V/I160V/N158S)
# Test: cell-based
# Sequence of human 5-HT2C receptor (P28335 33-458 I156V/N158S/I160V limits assumed): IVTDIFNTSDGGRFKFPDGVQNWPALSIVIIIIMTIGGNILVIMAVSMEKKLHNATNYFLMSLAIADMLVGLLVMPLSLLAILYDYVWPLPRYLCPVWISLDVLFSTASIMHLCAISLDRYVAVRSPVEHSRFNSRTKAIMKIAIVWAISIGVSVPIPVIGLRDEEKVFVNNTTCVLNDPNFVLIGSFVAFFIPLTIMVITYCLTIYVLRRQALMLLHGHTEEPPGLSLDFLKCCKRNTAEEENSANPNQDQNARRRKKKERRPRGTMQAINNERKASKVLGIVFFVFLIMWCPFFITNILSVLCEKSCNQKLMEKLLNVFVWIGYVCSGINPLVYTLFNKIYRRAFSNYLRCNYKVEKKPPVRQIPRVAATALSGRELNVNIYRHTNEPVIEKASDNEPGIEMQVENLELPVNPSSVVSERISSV
row,SMILES,EC50 [nM]
1,COC[C@H]1CCCN1c1c2c(nc3ccnn13)CCNCC2 [Example 1.12],507
2,CC(NC(=O)C1CN(c2c3c(nc4ccnn24)CCNCC3)C1)C(C)(C)C (stereo not drawn) [Example 37.111],139
3,O=C(NCC1CCC1)C1CN(c2c3c(nc4ccnn24)CCNCC3)C1 [Example 37.50],51
4,"COCC1CN(c2c3c(nc4ccnn24)CCNCC3)C1 [Example 16, 10-(3-Methoxymethyl-azetidin-1-yl)-6,7,8,9-tetrahydro-5H-1,4,7,10a-tetraaza-cyclohepta[f]indene]",211
5,O=C(C1CN(c2c3c(nc4ccnn24)CCNCC3)C1)N1CCc2ccc(C(F)(F)F)cc2C1 [Example 31.107],52
6,CC1(C)CC2CC(C)(CN2C(=O)C2CN(c3c4c(nc5ccnn35)CCNCC4)C2)C1 (stereo not drawn) [Example 31.25],1510
7,O=C(C1CN(c2c3c(nc4ccnn24)CCNCC3)C1)N1CCc2cc(F)ccc21 [Example 31.217],56
8,O=C(C1CN(c2c3c(nc4ccnn24)CCNCC3)C1)N1CCC(Cc2ccc(Cl)cc2)C1 (stereo not drawn) [Example 31.120],103
9,CC1C=CC(C)N1C(=O)C1CN(c2c3c(nc4ccnn24)CCNCC3)C1 (stereo not drawn) [Example 31.192],359
10,CCN1CCN(C(=O)C2CN(c3c4c(nc5ccnn35)CCNCC4)C2)CC1=O [Example 37.65],5
11,O=C(NCCN1CCCCC1)C1CN(c2c3c(nc4ccnn24)CCNCC3)C1 [Example 37.81],40
12,CC1CN(C(=O)C2CN(c3c4c(nc5ccnn35)CCNCC4)C2)CC(C)N1 (stereo not drawn) [Example 37.13],1
13,Fc1ccc(OCC2CN(c3c4c(nc5ccnn35)CCNCC4)C2)cc1Cl [Example 15.11],20
14,O=C(C1CN(c2c3c(nc4ccnn24)CCNCC3)C1)N1CCC(O)(c2ccc(C(F)(F)F)cc2)CC1 [Example 31.227],92
15,O=C(C1CN(c2c3c(nc4ccnn24)CCNCC3)C1)N1CCN(c2ccccc2F)CC1 [Example 37.40],12
16,Cc1nc(CN(C)C(=O)C2CN(c3c4c(nc5ccnn35)CCNCC4)C2)c(C)o1 [Example 31.58],53
17,c1cc2nc3c(c(N4CCC4)n2n1)CCNCC3 [Example 7.4],5
18,Cn1c(C2CN(c3c4c(nc5ccnn35)CCNCC4)C2)nc2cc(F)ccc21 [Example 34.38],290
19,O=C(C1CCCC1)N1CCN(C(=O)C2CN(c3c4c(nc5ccnn35)CCNCC4)C2)CC1 [Example 37.87],9
20,CN(C)C1CCN(C(=O)C2CN(c3c4c(nc5ccnn35)CCNCC4)C2)CC1 [Example 37.2],1
21,Cc1ccc(OCC2CN(c3c4c(nc5ccnn35)CCNCC4)C2)c(F)c1F [Example 15.10],20
22,COc1ccc(CN(C)C(=O)C2CN(c3c4c(nc5ccnn35)CCNCC4)C2)cc1 [Example 31.26],29
23,c1nn2c(N3CCC3)c3c(nc2c1CCC1CC1)CCNCC3 [Example 6.1],365
24,Cc1cccc(C2CCN(C(=O)C3CN(c4c5c(nc6ccnn46)CCNCC5)C3)CC2)c1 [Example 31.167],101
25,O=C(C1CN(c2c3c(nc4ccnn24)CCNCC3)C1)N1CCNCC1 [Example 37.44],2
26,O=C(NCC1CCCC1)C1CN(c2c3c(nc4ccnn24)CCNCC3)C1 [Example 37.103],68

row,SMILES,EC50 [nM]
1,CC(C)(C)NC1CCN(C(=O)C2CN(c3c4c(nc5ccnn35)CCNCC4)C2)CC1 [Example 37.22],2
2,CC(C)(C)CCNC(=O)C1CN(c2c3c(nc4ccnn24)CCNCC3)C1 [Example 37.83],51
3,CN(Cc1ccn(C)n1)C(=O)C1CN(c2c3c(nc4ccnn24)CCNCC3)C1 [Example 31.54],107
4,CN1CCC(CNC(=O)C2CN(c3c4c(nc5ccnn35)CCNCC4)C2)CC1 [Example 37.89],19
5,COc1ccccc1OCC1CN(c2c3c(nc4ccnn24)CCNCC3)C1 [Example 15.21],29
6,CC(C)(C)CNC(=O)C1CN(c2c3c(nc4ccnn24)CCNCC3)C1 [Example 37.76],65
7,COc1cc(F)ccc1OCC1CN(c2c3c(nc4ccnn24)CCNCC3)C1 [Example 15.8],6
8,Fc1ccc(OC2CN(c3c4c(nc5ccnn35)CCNCC4)C2)cc1 [Example 1.6],23
9,Cc1cnn2c(N3CC(C(=O)N4CCC5(CC4)OCc4ccccc45)C3)c3c(nc12)CCNCC3 [Example 31.242],86
10,"c1ccc(COC2CN(c3c4c(nc5ccnn35)CCNCC4)C2)cc1 [Example 20, 10-(3-Benzyloxy-azetidin-1-yl)-6,7,8,9-tetrahydro-5H-1,4,7,10a-tetraaza-cyclohepta[f]indene]",350
11,CCOC1CN(c2c3c(nc4ccnn24)CCNCC3)C1 [Example 20.2],658
12,C[C@@H]1C[C@H](C)CN(C(=O)C2CN(c3c4c(nc5ccnn35)CCNCC4)C2)C1 [Example 31.180],36
13,CCN(C(=O)C1CN(c2c3c(nc4ccnn24)CCNCC3)C1)C(C)C [Example 31.11],306
14,Fc1cccc(Cl)c1OCC1CN(c2c3c(nc4ccnn24)CCNCC3)C1 [Example 15.14],2
15,c1ccc2cc(OC3CN(c4c5c(nc6ccnn46)CCNCC5)C3)ccc2c1 [Example 35.46],495
16,O=C1CN(C(=O)C2CN(c3c4c(nc5ccnn35)CCNCC4)C2)CCN1 [Example 37.12],27
17,Fc1ccc2[nH]c(C3CN(c4c5c(nc6ccnn46)CCNCC5)C3)nc2c1F [Example 34.23],594
18,COc1ccccc1CN(C)C(=O)C1CN(c2c3c(nc4ccnn24)CCNCC3)C1 [Example 31.51],85
19,CN1CCc2nc3ccnn3c(N3CC(C(=O)NC4CCOCC4)C3)c2CC1 [Example 36.35],114
20,COc1ccccc1OC1CN(c2c3c(nc4ccnn24)CCNCC3)C1 [Example 35.54],85
21,"c1cc2nc3c(c(N4CCOCC4)n2n1)CCNCC3 [Example 7, 10-Morpholin-4-yl-6,7,8,9-tetrahydro-5H-1,4,7,10a-tetraaza-cyclohepta[f]indene]",2580
22,CC1CCN(C(=O)C2CN(c3c4c(nc5ccnn35)CCN(C)CC4)C2)C1 (stereo not drawn) [Example 36.42],741
23,"C1=C(c2c3c(nc4ccnn24)CCNCC3)CCNC1 [Example 24, 10-(1,2,3,6-Tetrahydro-pyridin-4-yl)-6,7,8,9-tetrahydro-5H-1,4,7,10a-tetraaza-cyclohepta[f]indene]",588
24,O=C(NCCc1ccccc1)C1CN(c2c3c(nc4ccnn24)CCNCC3)C1 [Example 31.21],727
25,CN1CCc2nc3ccnn3c(N3CC(C(=O)N4CCC(N5CCCC5)CC4)C3)c2CC1 [Example 36.8],38
26,CCC(CC)CNC(=O)C1CN(c2c3c(nc4ccnn24)CCNCC3)C1 [Example 37.88],36

row,SMILES,EC50 [nM]
1,O=C(C1CN(c2c3c(nc4ccnn24)CCNCC3)C1)N1CCC(Oc2ccccn2)CC1 [Example 31.230],54
2,c1csc(COC2CN(c3c4c(nc5ccnn35)CCNCC4)C2)n1 [Example 20.14],23
3,O=C(NCC(F)(F)F)C1CN(c2c3c(nc4ccnn24)CCNCC3)C1 [Example 37.94],228
4,Cc1cccc(OC2CN(c3c4c(nc5ccnn35)CCNCC4)C2)c1 [Example 35.51],126
5,Cc1ccc(Cl)c(OC2CN(c3c4c(nc5ccnn35)CCNCC4)C2)c1 [Example 35.29],114
6,Cc1ccc2c(c1)CCN2C(=O)C1CN(c2c3c(nc4ccnn24)CCNCC3)C1 [Example 31.156],135
7,CC(=O)NC1CCN(C(=O)C2CN(c3c4c(nc5ccnn35)CCNCC4)C2)CC1 [Example 37.29],10
8,COc1cc(C)cc(OCC2CN(c3c4c(nc5ccnn35)CCNCC4)C2)c1 [Example 15.22],141
9,CC(=O)NC1CCN(C(=O)C2CN(c3c4c(nc5ccnn35)CCNCC4)C2)C1 (stereo not drawn) [Example 37.27],14
10,CN(Cc1ccccc1)C(=O)C1CN(c2c3c(nc4ccnn24)CCNCC3)C1 [Example 31.19],50
11,CCC#CCNC(=O)C1CN(c2c3c(nc4ccnn24)CCNCC3)C1 [Example 37.52],61
12,"Cc1coc(C2CN(c3c4c(nc5ccnn35)CCNCC4)C2)n1 [Example 13, 10-[3-(4-Methyl-oxazol-2-yl)-azetidin-1-yl]-6,7,8,9-tetrahydro-5H-1,4,7,10a-tetraaza-cyclohepta[f]indene]",628
13,O=C(C1CN(c2c3c(nc4c(Br)cnn24)CCNCC3)C1)N1CCC2(CCOC2)CC1 [Example 31.137],71
14,O=C(C1CN(c2c3c(nc4ccnn24)CCNCC3)C1)N1CCN(C2CCOCC2)CC1 [Example 37.31],7
15,Cc1cc(C#N)cc(C)c1OC1CN(c2c3c(nc4ccnn24)CCNCC3)C1 [Example 35.15],20
16,CN(Cc1ccc(Cl)cc1Cl)C(=O)C1CN(c2c3c(nc4ccnn24)CCNCC3)C1 [Example 31.164],111
17,CC(=O)N1CCN(C(=O)C2CN(c3c4c(nc5ccnn35)CCNCC4)C2)CC1 [Example 37.36],10
18,"Cc1csc(C2CN(c3c4c(nc5ccnn35)CCNCC4)C2)n1 [Example 11, 10-[3-(4-Methyl-thiazol-2-yl)-azetidin-1-yl]-6,7,8,9-tetrahydro-5H-1,4,7,10a-tetraaza-cyclohepta[f]indene]",161
19,O=C(C1CN(c2c3c(nc4ccnn24)CCNCC3)C1)N1CCc2ccccc2CC1 [Example 31.33],196
20,CCCCNC(=O)C1CN(c2c3c(nc4ccnn24)CCNCC3)C1 [Example 37.72],91
21,CN(Cc1nccs1)C(=O)C1CN(c2c3c(nc4ccnn24)CCNCC3)C1 [Example 31.13],99
22,O=C(C1CN(c2c3c(nc4ccnn24)CCNCC3)C1)N1CC(F)(F)C(F)(F)C1 [Example 31.200],28
23,O=C(C1CN(c2c3c(nc4ccnn24)CCNCC3)C1)N1CCC2(CC1)OCc1ccccc12 [Example 31.153],86
24,CC1(NC(=O)C2CN(c3c4c(nc5ccnn35)CCNCC4)C2)CCCC1 [Example 37.80],124
25,COCCNC(=O)C1CN(c2c3c(nc4ccnn24)CCNCC3)C1 [Example 37.73],88
26,O=C(C1CN(c2c3c(nc4ccnn24)CCNCC3)C1)N1CCCC(c2cccc(F)c2)C1 (stereo not drawn) [Example 31.215],155
